In ChEMBL document CHEMBL1909046, “DrugMatrix in vitro pharmacology data”:

How the values were obtained:
[1] = DRUGMATRIX: Phosphodiesterase PDE4 enzyme inhibition (substrate: [3H]cAMP + cAMP); conditions: u-937, Not Active = under 50% inhibition at 10 µM
[2] = DRUGMATRIX: Sodium/nucleoside co-transporter radioligand binding (ligand: nitrobenzylthioinosine); format: cell membranes, Cavia porcellus, Dunkin-Hartley, Cerebral cortex, Membrane; conditions: Not Active = under 50% inhibition at 10 µM
[3] = DRUGMATRIX: Glutamate, Kainate radioligand binding (ligand: [3H] Kainic acid); format: cell membranes, Rattus norvegicus, Wistar, Brain, Membrane; conditions: Not Active = under 50% inhibition at 10 µM
D(1A) dopamine receptor = D(1A) dopamine receptor (Homo sapiens, UniProt P21728); assay: DRUGMATRIX: Dopamine D1 radioligand binding (ligand: [3H] SCH-23390); format: cell membranes, CHO, Membrane; conditions: Not Active = under 50% inhibition at 10 µM
[4] = DRUGMATRIX: Calcium Channel Type L, Benzothiazepine radioligand binding (ligand: [3H] Diltiazem); format: cell membranes, Rattus norvegicus, Wistar, Brain, Membrane; conditions: Not Active = under 50% inhibition at 10 µM
[5] = DRUGMATRIX: Leukotriene, BLT (LTB4) radioligand binding (ligand: [3H]LTB4); format: cell membranes, Membrane; conditions: u-937; Not Active = under 50% inhibition at 10 µM
Leukotriene C4 synthase = molecular target: T1, Leukotriene C4 synthase (Cavia porcellus, UniProt A6XA80); format: tissue-based, Lung;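 also: enzyme inhibition assay of leukotriene C4 synthase, using LTA4 as the substrate; in other assays of this panel Not Active means under 50% inhibition at 10 µM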
T1 sequence (A6XA80 whole entry): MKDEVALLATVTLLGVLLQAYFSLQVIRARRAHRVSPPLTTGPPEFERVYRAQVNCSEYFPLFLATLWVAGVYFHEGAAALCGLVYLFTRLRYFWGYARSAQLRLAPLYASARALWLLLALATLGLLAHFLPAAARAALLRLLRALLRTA

Sequence of D(1A) dopamine receptor (P21728 whole entry): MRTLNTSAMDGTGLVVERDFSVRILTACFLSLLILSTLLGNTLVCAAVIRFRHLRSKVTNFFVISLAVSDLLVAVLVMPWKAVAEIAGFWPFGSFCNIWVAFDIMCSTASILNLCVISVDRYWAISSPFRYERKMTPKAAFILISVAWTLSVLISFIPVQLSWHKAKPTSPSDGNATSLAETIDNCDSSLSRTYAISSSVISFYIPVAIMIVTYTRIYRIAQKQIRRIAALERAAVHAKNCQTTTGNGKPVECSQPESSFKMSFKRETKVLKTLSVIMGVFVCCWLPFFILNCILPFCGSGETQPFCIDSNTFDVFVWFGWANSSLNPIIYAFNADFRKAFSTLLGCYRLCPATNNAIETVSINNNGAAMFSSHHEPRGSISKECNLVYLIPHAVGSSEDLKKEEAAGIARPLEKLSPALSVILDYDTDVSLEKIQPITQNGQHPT

Compound	IC50 [1]	Ki [1]	IC50 [2]	Ki [2]	IC50 [3]	Ki [3]	IC50 (D(1A) dopamine receptor; cho)	IC50 [4]	Ki [4]	IC50 [5]	Ki [5]	IC50 (Leukotriene C4 synthase)	IC50 ([1]; read-out: IC50) [nM]	IC50 (D(1A) dopamine receptor; read-out: IC50) [nM]	Ki (D(1A) dopamine receptor; read-out: Ki) [nM]
Oc1ccccc1O [CATECHOL]	Not Active	Not Active	Not Active	Not Active	Not Active	Not Active	Not Active	Not Active	Not Active	Not Active	Not Active	Not Active	–	–	–
CO[C@@]1(NC(=O)CSCC#N)C(=O)N2C(C(=O)O)=C(CSc3nnnn3C)CS[C@@H]21 [CEFMETAZOLE]	Not Active	Not Active	Not Active	Not Active	Not Active	Not Active	Not Active	Not Active	Not Active	Not Active	Not Active	Not Active	–	–	–
CN(C(=O)CCCOc1ccc2[nH]c(=O)ccc2c1)C1CCCCC1 [CILOSTAMIDE]	Not Active	Not Active	Not Active	Not Active	Not Active	Not Active	Not Active	Not Active	Not Active	Not Active	Not Active	Not Active	–	–	–
CC(C)(Oc1ccc(C2CC2(Cl)Cl)cc1)C(=O)O (stereo unspecified) [CIPROFIBRATE]	Not Active	Not Active	Not Active	Not Active	Not Active	Not Active	Not Active	Not Active	Not Active	Not Active	Not Active	Not Active	–	–	–
Nc1nc(Cl)nc2c1ncn2[C@H]1C[C@H](O)[C@@H](CO)O1 [CLADRIBINE]	–	–	Not Active	Not Active	Not Active	Not Active	Not Active	Not Active	Not Active	Not Active	Not Active	Not Active	3620	–	–
CC[C@H]1OC(=O)[C@H](C)[C@@H](O[C@H]2C[C@@](C)(OC)[C@@H](O)[C@H](C)O2)[C@H](C)[C@@H](O[C@@H]2O[C@H](C)C[C@H](N(C)C)[C@H]2O)[C@](C)(OC)C[C@@H](C)C(=O)[C@H](C)[C@@H](O)[C@]1(C)O [CLARITHROMYCIN]	Not Active	Not Active	Not Active	Not Active	Not Active	Not Active	Not Active	Not Active	Not Active	Not Active	Not Active	Not Active	–	–	–
CCC[C@@H]1C[C@@H](C(=O)N[C@@H]([C@H]2O[C@H](SC)[C@H](O)[C@@H](O)[C@H]2O)[C@H](C)Cl)N(C)C1 [CLINDAMYCIN]	Not Active	Not Active	Not Active	Not Active	Not Active	Not Active	Not Active	Not Active	Not Active	Not Active	Not Active	Not Active	–	–	–
O=C(O)c1cc(=O)c2c(OCC(O)COc3cccc4oc(C(=O)O)cc(=O)c34)cccc2o1 [CROMOLYN]	Not Active	Not Active	Not Active	Not Active	Not Active	Not Active	Not Active	Not Active	Not Active	Not Active	Not Active	Not Active	–	–	–
O=P1(N(CCCl)CCCl)NCCCO1 (stereo unspecified) [CYCLOPHOSPHAMIDE ANHYDROUS]	Not Active	Not Active	Not Active	Not Active	Not Active	Not Active	Not Active	Not Active	Not Active	Not Active	Not Active	Not Active	–	–	–
CC(=O)O[C@]1(C(C)=O)CC[C@H]2[C@@H]3C=C(Cl)C4=CC(=O)[C@@H]5C[C@@H]5[C@]4(C)[C@H]3CC[C@@]21C [CYPROTERONE ACETATE]	Not Active	Not Active	Not Active	Not Active	Not Active	Not Active	Not Active	Not Active	Not Active	Not Active	Not Active	Not Active	–	–	–
Nc1nc(N)nc(NC2CC2)n1 [CYROMAZINE]	Not Active	Not Active	Not Active	Not Active	Not Active	Not Active	Not Active	Not Active	Not Active	Not Active	Not Active	Not Active	–	–	–
CCN[C@@H](C)Cc1cccc(C(F)(F)F)c1 [DEXFENFLURAMINE]	Not Active	Not Active	Not Active	Not Active	Not Active	Not Active	Not Active	Not Active	Not Active	Not Active	Not Active	Not Active	–	–	–
C[C@H](C(=O)O)c1cccc(C(=O)c2ccccc2)c1 [DEXKETOPROFEN]	Not Active	Not Active	Not Active	Not Active	Not Active	Not Active	Not Active	Not Active	Not Active	Not Active	Not Active	Not Active	–	–	–
CN1C(=O)CN=C(c2ccccc2)c2cc(Cl)ccc21 [DIAZEPAM]	Not Active	Not Active	Not Active	Not Active	Not Active	Not Active	Not Active	Not Active	Not Active	Not Active	Not Active	Not Active	–	–	–
CN1C[C@H](C(=O)N[C@]2(C)O[C@@]3(O)[C@@H]4CCCN4C(=O)[C@H](Cc4ccccc4)N3C2=O)C[C@@H]2c3cccc4[nH]cc(c34)C[C@H]21 [DIHYDROERGOTAMINE]	Not Active	Not Active	Not Active	Not Active	Not Active	Not Active	–	Not Active	Not Active	Not Active	Not Active	Not Active	–	2390	1200
Cc1c(N(C)CS(=O)(=O)[O-])c(=O)n(-c2ccccc2)n1C.[Na+] [DIPYRONE SODIUM]	Not Active	Not Active	Not Active	Not Active	Not Active	Not Active	Not Active	Not Active	Not Active	Not Active	Not Active	Not Active	–	–	–
CC(CCc1ccc(O)cc1)NCCc1ccc(O)c(O)c1 (stereo unspecified) [DOBUTAMINE]	Not Active	Not Active	Not Active	Not Active	Not Active	Not Active	Not Active	Not Active	Not Active	Not Active	Not Active	Not Active	–	–	–
CCn1cc(C(=O)O)c(=O)c2cc(F)c(N3CCNCC3)nc21 [ENOXACIN]	Not Active	Not Active	Not Active	Not Active	Not Active	Not Active	Not Active	Not Active	Not Active	Not Active	Not Active	Not Active	–	–	–
